Results: article PMC9030254, “Target Hopping from Protein Kinases to PXR: Identification of Small-Molecule Protein Kinase Inhibitors as Selective Modulators of Pregnane X Receptor from TüKIC Library” (Cells, 2022)

Experiments:
Experiment in all cases: Kinase profiling
Type in all cases: biochemical
MET = molecular target: T1, MET (Homo sapiens, UniProt P08581)
T1 construct: purchased ProQinase (Freiburg, Germany)
Description: (§1) The analysis was performed by ProQinase (Freiburg, Germany).

ABL1 = molecular target: T2, ABL1 (Homo sapiens, UniProt P00519)
T2 construct: purchased ProQinase (Freiburg, Germany)
T2 sequence (P00519 whole entry): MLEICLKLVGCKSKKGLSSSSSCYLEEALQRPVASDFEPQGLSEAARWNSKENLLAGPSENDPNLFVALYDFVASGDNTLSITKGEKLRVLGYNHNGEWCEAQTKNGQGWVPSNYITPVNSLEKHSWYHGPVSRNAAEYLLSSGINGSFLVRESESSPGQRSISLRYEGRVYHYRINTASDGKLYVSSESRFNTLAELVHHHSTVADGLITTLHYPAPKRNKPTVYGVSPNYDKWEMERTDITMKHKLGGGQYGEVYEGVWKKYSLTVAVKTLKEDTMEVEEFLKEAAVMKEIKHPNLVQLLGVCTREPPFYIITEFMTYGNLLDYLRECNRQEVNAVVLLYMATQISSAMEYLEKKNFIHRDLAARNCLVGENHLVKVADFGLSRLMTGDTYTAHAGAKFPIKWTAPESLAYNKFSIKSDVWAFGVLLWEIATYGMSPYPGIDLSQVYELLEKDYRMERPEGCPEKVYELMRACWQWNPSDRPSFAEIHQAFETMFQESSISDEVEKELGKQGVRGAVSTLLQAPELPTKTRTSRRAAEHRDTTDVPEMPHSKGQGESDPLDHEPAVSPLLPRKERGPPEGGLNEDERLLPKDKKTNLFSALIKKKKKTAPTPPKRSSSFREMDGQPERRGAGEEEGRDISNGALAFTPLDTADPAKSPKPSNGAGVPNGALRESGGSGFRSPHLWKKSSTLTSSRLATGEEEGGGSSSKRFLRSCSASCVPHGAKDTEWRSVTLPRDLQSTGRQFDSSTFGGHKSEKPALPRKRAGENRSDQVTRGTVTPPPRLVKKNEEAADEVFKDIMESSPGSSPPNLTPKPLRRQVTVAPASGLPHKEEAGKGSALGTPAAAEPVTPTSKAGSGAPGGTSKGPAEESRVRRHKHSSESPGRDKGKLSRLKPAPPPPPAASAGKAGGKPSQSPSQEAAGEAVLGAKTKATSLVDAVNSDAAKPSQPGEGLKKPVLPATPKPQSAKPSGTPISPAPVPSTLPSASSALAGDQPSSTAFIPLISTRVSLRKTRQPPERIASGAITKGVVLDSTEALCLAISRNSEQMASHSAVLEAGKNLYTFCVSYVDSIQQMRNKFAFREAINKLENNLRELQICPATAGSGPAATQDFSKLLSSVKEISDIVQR
Description: as §1

HIPK3 = molecular target: T3, HIPK3 (Homo sapiens, UniProt Q9H422)
T3 construct: purchased ProQinase (Freiburg, Germany)
T3 sequence (Q9H422 whole entry): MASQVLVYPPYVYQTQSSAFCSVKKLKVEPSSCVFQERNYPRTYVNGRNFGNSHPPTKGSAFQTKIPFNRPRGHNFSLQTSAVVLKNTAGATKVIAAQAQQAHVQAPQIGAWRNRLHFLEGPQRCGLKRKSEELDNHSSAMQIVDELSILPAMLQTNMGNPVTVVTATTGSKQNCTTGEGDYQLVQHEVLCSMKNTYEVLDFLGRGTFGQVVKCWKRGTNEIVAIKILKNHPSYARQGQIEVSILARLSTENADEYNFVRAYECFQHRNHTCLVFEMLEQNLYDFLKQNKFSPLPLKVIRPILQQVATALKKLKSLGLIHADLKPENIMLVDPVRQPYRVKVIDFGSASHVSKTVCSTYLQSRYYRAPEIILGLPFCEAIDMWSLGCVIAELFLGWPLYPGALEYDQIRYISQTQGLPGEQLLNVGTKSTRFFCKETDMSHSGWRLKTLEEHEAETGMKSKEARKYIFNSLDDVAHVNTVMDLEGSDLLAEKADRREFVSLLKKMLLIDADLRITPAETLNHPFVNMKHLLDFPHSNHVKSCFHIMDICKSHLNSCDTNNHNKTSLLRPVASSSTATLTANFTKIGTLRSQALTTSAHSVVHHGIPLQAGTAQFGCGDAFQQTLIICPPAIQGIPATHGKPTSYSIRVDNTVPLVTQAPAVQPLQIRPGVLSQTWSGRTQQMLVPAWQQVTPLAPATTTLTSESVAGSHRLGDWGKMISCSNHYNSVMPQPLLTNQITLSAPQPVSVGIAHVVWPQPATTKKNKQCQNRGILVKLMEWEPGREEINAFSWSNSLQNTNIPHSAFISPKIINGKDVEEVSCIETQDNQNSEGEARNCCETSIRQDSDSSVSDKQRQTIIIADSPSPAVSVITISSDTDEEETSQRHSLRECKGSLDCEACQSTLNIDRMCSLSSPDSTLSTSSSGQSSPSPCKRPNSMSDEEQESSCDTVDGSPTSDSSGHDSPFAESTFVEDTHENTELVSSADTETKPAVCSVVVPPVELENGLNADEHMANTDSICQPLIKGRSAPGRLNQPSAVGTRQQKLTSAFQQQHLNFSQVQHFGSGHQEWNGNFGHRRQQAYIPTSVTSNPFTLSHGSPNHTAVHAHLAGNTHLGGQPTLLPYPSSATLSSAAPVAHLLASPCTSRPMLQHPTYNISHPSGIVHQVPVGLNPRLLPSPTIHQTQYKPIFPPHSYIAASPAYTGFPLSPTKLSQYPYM
Description: as §1

TTBK1 = molecular target: T4, TTBK1 (Homo sapiens, UniProt Q5TCY1)
T4 construct: purchased ProQinase (Freiburg, Germany)
T4 sequence (Q5TCY1 whole entry): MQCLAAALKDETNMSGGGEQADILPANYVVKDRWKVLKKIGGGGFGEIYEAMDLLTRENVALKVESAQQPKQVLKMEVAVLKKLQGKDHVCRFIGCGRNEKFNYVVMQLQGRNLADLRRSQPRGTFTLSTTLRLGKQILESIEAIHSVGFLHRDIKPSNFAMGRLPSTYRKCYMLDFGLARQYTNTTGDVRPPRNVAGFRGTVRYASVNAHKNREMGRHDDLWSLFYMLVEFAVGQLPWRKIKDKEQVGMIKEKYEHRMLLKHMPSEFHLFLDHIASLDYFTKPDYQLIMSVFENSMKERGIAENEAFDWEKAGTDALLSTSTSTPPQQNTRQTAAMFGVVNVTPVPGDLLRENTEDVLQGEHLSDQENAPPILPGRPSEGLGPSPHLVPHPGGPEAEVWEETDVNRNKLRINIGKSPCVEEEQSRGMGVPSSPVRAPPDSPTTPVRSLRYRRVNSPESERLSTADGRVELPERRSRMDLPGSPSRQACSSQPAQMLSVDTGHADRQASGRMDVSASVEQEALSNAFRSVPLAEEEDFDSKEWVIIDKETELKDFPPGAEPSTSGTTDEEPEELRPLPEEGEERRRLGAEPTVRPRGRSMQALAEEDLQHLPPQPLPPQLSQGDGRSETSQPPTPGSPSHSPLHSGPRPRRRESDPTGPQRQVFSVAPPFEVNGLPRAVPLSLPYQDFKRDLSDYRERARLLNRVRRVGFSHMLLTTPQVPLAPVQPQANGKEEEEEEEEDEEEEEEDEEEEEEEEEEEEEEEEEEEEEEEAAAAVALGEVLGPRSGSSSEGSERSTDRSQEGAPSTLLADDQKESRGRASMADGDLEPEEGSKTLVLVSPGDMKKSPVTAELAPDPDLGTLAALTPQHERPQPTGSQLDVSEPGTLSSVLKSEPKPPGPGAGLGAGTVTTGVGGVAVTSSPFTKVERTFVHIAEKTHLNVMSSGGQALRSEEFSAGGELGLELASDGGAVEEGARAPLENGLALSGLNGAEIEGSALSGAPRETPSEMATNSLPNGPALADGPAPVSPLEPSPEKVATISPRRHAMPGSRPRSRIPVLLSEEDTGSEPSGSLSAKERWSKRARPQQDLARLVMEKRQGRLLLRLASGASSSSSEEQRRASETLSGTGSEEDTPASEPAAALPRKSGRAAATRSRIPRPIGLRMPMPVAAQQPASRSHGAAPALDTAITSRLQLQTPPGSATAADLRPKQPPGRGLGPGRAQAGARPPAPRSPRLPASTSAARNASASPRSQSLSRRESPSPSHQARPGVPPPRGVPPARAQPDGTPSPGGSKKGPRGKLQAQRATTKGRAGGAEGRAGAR
Description: as §1

NEK9 = molecular target: T5, NEK9 (Homo sapiens, UniProt Q8TD19)
T5 construct: purchased ProQinase (Freiburg, Germany)
T5 sequence (Q8TD19 1-979): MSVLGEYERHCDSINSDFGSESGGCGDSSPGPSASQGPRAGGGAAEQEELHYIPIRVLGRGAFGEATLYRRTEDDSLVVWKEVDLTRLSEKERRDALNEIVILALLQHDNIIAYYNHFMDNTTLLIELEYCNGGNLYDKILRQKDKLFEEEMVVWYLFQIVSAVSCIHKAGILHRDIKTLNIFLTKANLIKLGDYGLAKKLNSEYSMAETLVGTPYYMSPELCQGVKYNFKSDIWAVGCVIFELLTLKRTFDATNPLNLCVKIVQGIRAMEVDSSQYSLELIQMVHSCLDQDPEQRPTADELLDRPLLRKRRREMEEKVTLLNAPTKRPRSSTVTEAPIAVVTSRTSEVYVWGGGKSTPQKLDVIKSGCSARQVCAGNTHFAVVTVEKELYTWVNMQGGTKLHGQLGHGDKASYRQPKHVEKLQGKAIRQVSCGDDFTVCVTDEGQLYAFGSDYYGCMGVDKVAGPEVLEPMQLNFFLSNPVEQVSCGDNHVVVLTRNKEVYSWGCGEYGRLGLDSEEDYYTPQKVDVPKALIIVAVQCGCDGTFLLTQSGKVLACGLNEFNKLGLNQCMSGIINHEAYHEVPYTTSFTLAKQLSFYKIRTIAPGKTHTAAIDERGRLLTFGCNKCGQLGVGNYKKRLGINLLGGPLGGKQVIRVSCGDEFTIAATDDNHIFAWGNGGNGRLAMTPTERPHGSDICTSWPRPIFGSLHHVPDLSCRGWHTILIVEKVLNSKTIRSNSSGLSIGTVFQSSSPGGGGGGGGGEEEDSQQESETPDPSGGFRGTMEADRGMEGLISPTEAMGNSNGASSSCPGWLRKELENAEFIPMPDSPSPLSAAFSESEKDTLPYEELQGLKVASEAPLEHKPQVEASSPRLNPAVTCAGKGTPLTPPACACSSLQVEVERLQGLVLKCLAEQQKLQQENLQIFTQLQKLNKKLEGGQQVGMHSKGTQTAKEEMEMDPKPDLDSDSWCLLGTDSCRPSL
Description: as §1

MATK = molecular target: T6, MATK (Homo sapiens, UniProt P42679)
T6 construct: purchased ProQinase (Freiburg, Germany)
T6 sequence (P42679 1-507): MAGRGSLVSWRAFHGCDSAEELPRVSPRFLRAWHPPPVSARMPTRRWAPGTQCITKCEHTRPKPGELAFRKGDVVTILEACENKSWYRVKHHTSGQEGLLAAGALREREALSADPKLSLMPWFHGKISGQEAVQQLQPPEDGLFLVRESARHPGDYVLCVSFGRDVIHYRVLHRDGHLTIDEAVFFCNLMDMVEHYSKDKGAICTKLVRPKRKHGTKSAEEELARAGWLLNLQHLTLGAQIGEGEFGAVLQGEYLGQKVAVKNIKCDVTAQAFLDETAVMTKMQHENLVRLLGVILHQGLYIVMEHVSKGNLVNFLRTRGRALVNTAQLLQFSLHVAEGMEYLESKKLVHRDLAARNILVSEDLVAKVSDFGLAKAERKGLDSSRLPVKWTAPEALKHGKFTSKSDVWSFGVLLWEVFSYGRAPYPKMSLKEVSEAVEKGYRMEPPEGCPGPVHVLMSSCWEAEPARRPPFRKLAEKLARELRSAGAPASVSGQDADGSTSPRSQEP
Description: as §1

IKKbeta = molecular target: T7, IKKbeta (Homo sapiens, UniProt O14920)
T7 construct: purchased ProQinase (Freiburg, Germany)
T7 sequence (O14920 1-756): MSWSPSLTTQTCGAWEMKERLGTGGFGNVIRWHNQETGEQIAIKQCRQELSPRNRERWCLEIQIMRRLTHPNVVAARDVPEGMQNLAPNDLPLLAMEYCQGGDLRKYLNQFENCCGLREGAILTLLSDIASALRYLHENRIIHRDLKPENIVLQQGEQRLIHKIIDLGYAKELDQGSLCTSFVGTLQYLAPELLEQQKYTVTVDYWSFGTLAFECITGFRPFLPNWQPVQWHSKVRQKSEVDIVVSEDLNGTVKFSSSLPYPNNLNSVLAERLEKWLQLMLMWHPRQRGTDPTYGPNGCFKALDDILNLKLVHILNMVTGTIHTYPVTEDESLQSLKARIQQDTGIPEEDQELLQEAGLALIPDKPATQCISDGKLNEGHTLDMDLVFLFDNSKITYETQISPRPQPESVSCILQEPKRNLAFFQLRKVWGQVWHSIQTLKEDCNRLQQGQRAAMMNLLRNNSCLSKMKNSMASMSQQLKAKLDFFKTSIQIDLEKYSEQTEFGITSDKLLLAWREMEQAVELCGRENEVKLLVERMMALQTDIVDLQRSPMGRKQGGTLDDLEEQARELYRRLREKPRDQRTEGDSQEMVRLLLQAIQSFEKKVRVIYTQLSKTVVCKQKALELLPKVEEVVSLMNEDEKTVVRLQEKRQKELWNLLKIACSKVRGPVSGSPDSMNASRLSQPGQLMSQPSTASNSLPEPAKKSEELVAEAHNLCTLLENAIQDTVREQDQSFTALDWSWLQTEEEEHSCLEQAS
Description: as §1

T1 sequence (P08581 25-1390): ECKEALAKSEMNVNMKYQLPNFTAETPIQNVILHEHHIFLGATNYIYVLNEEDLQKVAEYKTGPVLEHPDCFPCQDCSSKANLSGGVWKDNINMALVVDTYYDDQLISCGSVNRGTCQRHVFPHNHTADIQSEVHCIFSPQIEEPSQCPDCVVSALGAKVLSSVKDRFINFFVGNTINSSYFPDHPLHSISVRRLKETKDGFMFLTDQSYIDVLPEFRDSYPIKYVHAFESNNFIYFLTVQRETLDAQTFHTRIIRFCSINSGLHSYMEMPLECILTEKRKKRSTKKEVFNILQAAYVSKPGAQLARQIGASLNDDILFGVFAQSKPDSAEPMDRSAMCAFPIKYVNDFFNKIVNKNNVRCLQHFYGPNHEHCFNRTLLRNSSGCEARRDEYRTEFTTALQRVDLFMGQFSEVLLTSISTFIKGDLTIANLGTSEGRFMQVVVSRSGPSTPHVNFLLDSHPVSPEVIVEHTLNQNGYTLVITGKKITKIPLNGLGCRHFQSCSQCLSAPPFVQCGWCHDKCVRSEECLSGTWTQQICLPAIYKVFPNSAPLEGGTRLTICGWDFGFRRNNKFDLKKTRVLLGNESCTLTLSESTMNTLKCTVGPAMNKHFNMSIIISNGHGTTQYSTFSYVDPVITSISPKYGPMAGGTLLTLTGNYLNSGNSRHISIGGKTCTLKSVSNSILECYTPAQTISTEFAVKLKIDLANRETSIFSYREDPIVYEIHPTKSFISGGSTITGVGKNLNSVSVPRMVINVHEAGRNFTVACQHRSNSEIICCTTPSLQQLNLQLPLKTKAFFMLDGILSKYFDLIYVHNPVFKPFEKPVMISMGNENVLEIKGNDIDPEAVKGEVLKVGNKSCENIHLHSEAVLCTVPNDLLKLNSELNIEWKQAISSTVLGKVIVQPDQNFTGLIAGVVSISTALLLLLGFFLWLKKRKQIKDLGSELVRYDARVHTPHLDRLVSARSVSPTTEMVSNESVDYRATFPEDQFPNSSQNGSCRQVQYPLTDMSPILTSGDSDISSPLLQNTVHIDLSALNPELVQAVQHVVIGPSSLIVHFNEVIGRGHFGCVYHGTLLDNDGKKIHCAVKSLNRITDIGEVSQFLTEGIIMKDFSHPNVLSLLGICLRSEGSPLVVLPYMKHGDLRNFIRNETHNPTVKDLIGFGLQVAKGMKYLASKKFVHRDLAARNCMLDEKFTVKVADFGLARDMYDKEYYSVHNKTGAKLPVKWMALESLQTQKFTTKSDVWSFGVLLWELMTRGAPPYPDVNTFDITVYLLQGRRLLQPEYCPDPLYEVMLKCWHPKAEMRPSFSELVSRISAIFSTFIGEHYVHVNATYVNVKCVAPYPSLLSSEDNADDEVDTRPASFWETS

Row | Compound | Residual activity (MET; 1.0E-05 M) | Residual activity (MET; 1.0E-06 M) | Residual activity (ABL1; 1.0E-05 M) | Residual activity (ABL1; 1.0E-06 M) | Residual activity (HIPK3; 1.0E-05 M) | Residual activity (HIPK3; 1.0E-06 M) | Residual activity (TTBK1; 1.0E-05 M) | Residual activity (TTBK1; 1.0E-06 M) | Residual activity (NEK9; 1.0E-05 M) | Residual activity (NEK9; 1.0E-06 M) | Residual activity (MATK; 1.0E-05 M) | Residual activity (MATK; 1.0E-06 M) | Residual activity (IKKbeta; 1.0E-05 M) | Residual activity (IKKbeta; 1.0E-06 M)
1 | O=C(Cc1ccccc1)Nc1ccc(F)c(Nc2ccc3c(c2)CCCCC3=O)c1 [Compound 100] | 89 % of control | 101 % of control | 88 % of control | 90 % of control | 87 % of control | 88 % of control | 126 % of control | 108 % of control | 93 % of control | 86 % of control | 86 % of control | 101 % of control | 99 % of control | 110 % of control
2 | O=C(Nc1ccc(F)c(Nc2ccc3c(c2)CCCCC3=O)c1)c1cccc(F)c1 [Compound 109] | 91 % of control | 95 % of control | 91 % of control | 91 % of control | 90 % of control | 89 % of control | 115 % of control | 101 % of control | 81 % of control | 96 % of control | 95 % of control | 94 % of control | 79 % of control | 84 % of control
